Experimental data published in patent publication US12593845B2 (priority 2019, dated 2026).

Experiments:
[1] = system: apple scab pathogen (Venturia inaequalis); assay: Apple scab control test; assay type: in vivo; details: 336 h, 125 ppm drug solution sprayed onto apple seedlings (Orin), lesion area ratio 2 weeks after inoculation
Protocol: (§1) 5 parts by weight of the dihydropyrimidine compound of the present invention, 93.5 parts by weight of N,N-dimethylformamide, and 1.5 parts by weight of polyoxyethylene sorbitan monolaurate (TWEEN® 20) were mixed and dissolved to obtain an emulsion (I) including 5% of an active ingredient.
(§2) The control value was calculated by the following expression. Control value (%)=100−{lesion area ratio in treated group/lesion area ratio in untreated group}×100 [Expression 1]
Water was added to the emulsion (I) such that the concentration of the dihydropyrimidine compound reached 125 ppm to dissolve the emulsion, and a drug solution was obtained. Subsequently, the drug solution was sprayed onto apple seedlings (variety: “Orin”, leaf stage: 3 to 4) cultivated in seedling pots. After air drying, the seedlings were inoculated with conidiospores of an apple scab pathogen (Venturia inaequalis) (treated group). As a control, apple seedlings that were not sprayed with the drug solution were inoculated in the same manner (untreated group). The seedlings were left to stand in a humidified room at 20° C. using a 12 hour light/dark cycle.
On the day 2 weeks after the inoculation, the leaves of the apple seedlings were visually observed to determine the lesion area ratio, and the control value was calculated.

[2] = system: Aspergillus niger; assay: Antimicrobial test against Aspergillus niger; assay type: cell-based; details: 96 h, Vogel medium, 25° C., 4 days in the dark, turbidity at 405 nm, read-out: growth inhibition rate
Protocol: Spores of Aspergillus niger were added to and dispersed in a Vogel medium, and a dihydropyrimidine compound dissolved in dimethyl sulfoxide was added and mixed thereto at 25 ppm. The resulting solution was dispensed onto a 96-well microplate and cultivated in the dark at 25° C. for 4 days.
After the cultivation, the turbidity at a wavelength of 405 nm was measured by a microplate reader and compared with that in the untreated case to determine the growth inhibition of Aspergillus niger (%) was determined.

[3] = system: wheat powdery mildew pathogen (Erysiphe graminis f. sp. tritici); assay: Wheat powdery mildew control test; assay type: in vivo; details: Blumeria graminis, 144 h; 125 ppm drug solution sprayed onto wheat seedlings (Chihoku); lesion area ratio 6 days after inoculation
Protocol: as §1, §2
Water was added to the emulsion (I) such that the concentration of the dihydropyrimidine compound reached 125 ppm to dissolve the emulsion, and a drug solution was obtained. Subsequently, the drug solution was sprayed onto wheat seedlings (variety: “Chihoku”, leaf stage: 1 to 2) cultivated in seedling pots. After air drying, conidiospores of a wheat powdery mildew pathogen (Erysiphe graminis f. sp. tritici) were sprinkled thereon for inoculation (treated group). As a control, wheat seedlings that were not sprayed with the drug solution were inoculated in the same manner as described above (untreated group). The seedlings were left to stand in a greenhouse at 20° C.
On the 6 days after the inoculation, the leaves of the wheat seedlings were visually observed to determine the lesion area ratio, and the control value was calculated.

[4] = system: wheat powdery mildew pathogen (Erysiphe graminis f. sp. tritici); assay: Wheat powdery mildew seed treatment test; assay type: in vivo; details: Blumeria graminis, 168 h; seed treatment 100 g/100 kg wheat seeds (Chihoku); inoculation after 8 to 10 days; lesion area ratio 7 days after inoculation
Protocol: as §1, §2
The emulsion (I) was used to treat seeds such that (weight of dihydropyrimidine compound)/(weight of seeds) reached 100 g/100 kg based on the wheat seeds (variety: “Chihoku”). These seeds were disseminated in pots, and after 8 to 10 days, conidiospores of a wheat powdery mildew pathogen (Erysiphe graminis f. sp. tritici) were sprinkled thereon for inoculation (treated group). As a control, wheat seedlings that were not treated with the drug were inoculated in the same manner as described above (untreated group). The seedlings were left to stand in a greenhouse at 20° C.
On the 7 days after the inoculation, the leaves of the wheat seedlings were visually observed to determine the lesion area ratio, and the control value was calculated.

CCON=Cc1cn(CC(OCCC#N)c2cc(F)ccc2OC)c(=O)n(CC(C)(C)C(=O)NC(C)C)c1=O (stereo not drawn) [A-7]
pest or weed control at 125 ppm [1]: ≥ 75%
inhibition at 25 ppm [2]: ≥ 50%

CCON=Cc1cn(CC(OCCC#N)c2cc(F)ccc2OC)c(=O)n(CCNC(=O)OC(C)(C)C)c1=O (stereo not drawn) [A-18]
pest or weed control at 125 ppm [1]: ≥ 75%
pest or weed control at 125 ppm [3]: ≥ 75%

CCON=C(C)c1cn(CC(O)c2cc(F)ccc2OC)c(=O)n(C(C)C(=O)NC(C)C)c1=O (stereo not drawn) [A-31]
pest or weed control at 125 ppm [1]: ≥ 75%
pest or weed control at 125 ppm [3]: ≥ 75%

CCO/N=C(\C)c1cn(CC(O)c2cc(F)ccc2OC)c(=O)n(CCNC(=O)C(C)C)c1=O (stereo not drawn) [A-37, N-(2-(5-(1-(ethoxyimino)ethyl)-3-(2-(5-fluoro-2-methoxyphenyl)-2-hydroxyethyl)-2,6-dioxo-3,6-dihydropyrimidin-1(2H)-yl)ethyl)isobutyramide]
pest or weed control at 125 ppm [1]: ≥ 75%
inhibition at 25 ppm [2]: ≥ 50%

CCO/N=C(\C)c1cn(CC(OCCC#N)c2cc(F)ccc2OC)c(=O)n(CCNC(=O)C(C)C)c1=O (stereo not drawn) [A-38, N-(2-(3-(2-(2-cyanoethoxy)-2-(5-fluoro-2-methoxyphenyl)ethyl)-5-(1-(ethoxyimino)ethyl)-2,6-dioxo-3,6-dihydropyrimidin-1(2H)-yl)ethyl)isobutyramide]
pest or weed control at 125 ppm [1]: ≥ 75%
pest or weed control at 125 ppm [3]: ≥ 75%
inhibition at 25 ppm [2]: ≥ 50%

CCO/N=C(\C)c1cn(CC(O)c2cc(F)ccc2OC)c(=O)n(C[C@H](C)NC(=O)C(C)C)c1=O (stereo partly drawn) [A-42]
pest or weed control at 125 ppm [1]: ≥ 75%
pest or weed control at 125 ppm [3]: ≥ 75%
inhibition at 25 ppm [2]: ≥ 50%

CCO/N=C(\C)c1cn(/C=C(\OC(=O)C(C)C)c2cc(F)ccc2OC)c(=O)n(C[C@H](C)NC(=O)C(C)C)c1=O [A-46]
pest or weed control at 125 ppm [1]: ≥ 75%
pest or weed control at 125 ppm [3]: ≥ 75%

C/C(=N\OC(C)C)c1cn(CC(O)c2ccccc2OC(C)C)c(=O)n(C[C@H](C)NC(=O)C(C)C)c1=O (stereo partly drawn) [A-49]
pest or weed control at 125 ppm [1]: ≥ 75%
pest or weed control at 125 ppm [3]: ≥ 75%

CCOc1ccccc1C(O)Cn1cc(/C(C)=N/OC(C)C)c(=O)n(C[C@H](C)NC(=O)C(C)C)c1=O (stereo partly drawn) [A-51]
pest or weed control at 125 ppm [1]: ≥ 75%
pest or weed control at 125 ppm [3]: ≥ 75%
inhibition at 25 ppm [2]: ≥ 50%

COc1ccc(F)cc1C(Cn1cc(C=NOC(C)C)c(=O)n(C(C)C(=O)N2CCSCC2)c1=O)OCCC#N (stereo not drawn) [A-67]
pest or weed control at 125 ppm [1]: ≥ 75%

COc1ccc(F)cc1C(O)Cn1cc(C=NOC(C)C)c(=O)n(C(C)C(=O)N2CCOCC2)c1=O (stereo not drawn) [A-71]
pest or weed control at 125 ppm [1]: ≥ 75%
pest or weed control at 125 ppm [3]: ≥ 75%

COc1ccc(F)cc1C(O)Cn1cc(C=NOC(C)C)c(=O)n(C(C)C(=O)N2CCSCC2)c1=O (stereo not drawn) [A-72]
pest or weed control at 125 ppm [1]: ≥ 75%

COc1ccc(F)cc1C(O)Cn1cc(C=NOC(C)C)c(=O)n(C(C)CNC(=O)C(C)C)c1=O (stereo not drawn) [A-79]
pest or weed control at 125 ppm [1]: ≥ 75%
pest or weed control at 125 ppm [3]: ≥ 75%
inhibition at 25 ppm [2]: ≥ 50%

COc1ccc(F)cc1C(Cn1cc(C=NOC(C)C)c(=O)n(C(C)C(=O)N2CCC2)c1=O)OCCC#N (stereo not drawn) [A-81]
pest or weed control at 125 ppm [1]: ≥ 75%
pest or weed control at 125 ppm [3]: ≥ 75%

COc1ccc(F)cc1C(O)Cn1cc(/C=N\OC(C)C)c(=O)n(CC(=O)N2CCCCC2)c1=O (stereo not drawn) [A-83]
pest or weed control at 125 ppm [1]: ≥ 75%

COc1ccc(F)cc1C(Cn1cc(C=NOC(C)C)c(=O)n(CC(=O)NC(C)C)c1=O)OCCC#N (stereo not drawn) [A-84]
pest or weed control at 125 ppm [1]: ≥ 75%
pest or weed control at 125 ppm [3]: ≥ 75%

COc1ccc(F)cc1C(O)Cn1cc(C=NOC(C)C)c(=O)n(CC(=O)NC(C)C)c1=O (stereo not drawn) [A-85]
pest or weed control at 125 ppm [1]: ≥ 75%

COc1ccc(F)cc1C(O)Cn1cc(C=NOC(C)C)c(=O)n(C(C)C(=O)N2CCC2)c1=O (stereo not drawn) [A-86]
pest or weed control at 125 ppm [3]: ≥ 75%

COc1ccc(F)cc1C(O)Cn1cc(C=NOC(C)C)c(=O)n(C(C)C(=O)NC2CC2)c1=O (stereo not drawn) [A-87]
pest or weed control at 125 ppm [1]: ≥ 75%

CCO/N=C(\C)c1cn(CC(OC(C)=O)c2cc(F)ccc2OC)c(=O)n(CCNC(=O)C(C)C)c1=O (stereo not drawn) [A-88]
pest or weed control at 125 ppm [1]: ≥ 75%
inhibition at 25 ppm [2]: ≥ 50%

COc1ccc(F)cc1C(O)Cn1cc(C=NOC(C)C)c(=O)n(C(C)C(=O)N2CCCCC2)c1=O (stereo not drawn) [A-90]
pest or weed control at 125 ppm [1]: ≥ 75%
pest or weed control at 125 ppm [3]: ≥ 75%
inhibition at 25 ppm [2]: ≥ 50%

CCON=Cc1cn(CC(O)c2cc(F)ccc2OC)c(=O)n(CC(C)(C)NC(=O)C(C)C)c1=O (stereo not drawn) [A-92]
pest or weed control at 125 ppm [3]: ≥ 75%

CCON=Cc1cn(CC(O)c2cc(F)ccc2OC)c(=O)n(C(C)C(=O)NC(C)C)c1=O (stereo not drawn) [A-94]
pest or weed control at 125 ppm [1]: ≥ 75%
pest or weed control at 125 ppm [3]: ≥ 75%

CCO/N=C(\C)c1cn(CC(OC)c2cc(F)ccc2OC)c(=O)n(CCNC(=O)C(C)C)c1=O (stereo not drawn) [A-96]
pest or weed control at 125 ppm [1]: ≥ 75%
pest or weed control at 125 ppm [3]: ≥ 75%
inhibition at 25 ppm [2]: ≥ 50%

CCO/N=C(\C)c1cn(CC(OC)c2cc(F)ccc2OC)c(=O)n(CCN(C)C(=O)C(C)C)c1=O (stereo not drawn) [A-97]
pest or weed control at 125 ppm [1]: ≥ 75%
pest or weed control at 125 ppm [3]: ≥ 75%
inhibition at 25 ppm [2]: ≥ 50%

COc1ccc(F)cc1C(Cn1cc(C=NOC(C)(C)C)c(=O)n(C(C)C(=O)NC(C)C)c1=O)OCCC#N (stereo not drawn) [A-98]
pest or weed control at 125 ppm [1]: ≥ 75%

COc1ccc(F)cc1C(Cn1cc(/C(C)=N/OC(C)C)c(=O)n(CCNC(=O)C(C)C)c1=O)OCCC#N (stereo not drawn) [A-101]
pest or weed control at 125 ppm [1]: ≥ 75%
pest or weed control at 125 ppm [3]: ≥ 75%
inhibition at 25 ppm [2]: ≥ 50%

COc1ccc(F)cc1C(O)Cn1cc(/C(C)=N/OC(C)C)c(=O)n(CCNC(=O)C(C)C)c1=O (stereo not drawn) [A-102]
pest or weed control at 125 ppm [1]: ≥ 75%
pest or weed control at 125 ppm [3]: ≥ 75%
inhibition at 25 ppm [2]: ≥ 50%

CCON=Cc1cn(CCc2ccccc2OC)c(=O)n(C(C)C(=O)OCC)c1=O (stereo not drawn) [A-103]
pest or weed control at 125 ppm [1]: ≥ 75%

CCON=Cc1cn(CCc2ccccc2OC)c(=O)n(C(C)C(=O)N2CCCC2)c1=O (stereo not drawn) [A-104]
pest or weed control at 125 ppm [1]: ≥ 75%

CCON=Cc1cn(CCc2ccccc2OC)c(=O)n(C(C)C(=O)N2CCCCC2)c1=O (stereo not drawn) [A-105]
pest or weed control at 125 ppm [1]: ≥ 75%
pest or weed control at 125 ppm [3]: ≥ 75%

CCON=Cc1cn(CCc2ccccc2OC)c(=O)n(C(C)C(=O)NC(C)C)c1=O (stereo not drawn) [A-107]
pest or weed control at 125 ppm [1]: ≥ 75%

CCO/N=C(\C)c1nn(CC(O)c2cc(F)ccc2OC)c(=O)n(C[C@H](C)NC(=O)C(C)C)c1=O (stereo partly drawn) [B-1]
pest or weed control at 125 ppm [3]: ≥ 75%

CCO/N=C(\C)c1nn(CC(OCCC#N)c2cc(F)ccc2OC)c(=O)n(C(C)C(=O)NC(C)C)c1=O (stereo not drawn) [B-3]
pest or weed control at 125 ppm [1]: ≥ 75%
pest or weed control at 125 ppm [3]: ≥ 75%

CCCn1c(=O)c(/C(C)=N/OC(C)C)cn(CC(O)c2cc(F)ccc2OC)c1=O (stereo not drawn) [B-7]
pest or weed control at 125 ppm [1]: ≥ 75%

COc1ccccc1CCn1cc(/C(N)=N/OC(C)C)c(=O)n(CCc2ccccc2OC)c1=O [B-8]
pest or weed control at 125 ppm [1]: ≥ 75%

CCO/N=C(\N)c1cn(CCc2ccccc2OC)c(=O)n(CCc2ccccc2OC)c1=O [B-9]
pest or weed control at 125 ppm [1]: ≥ 75%

CC[C@@H](Cn1c(=O)c(/C(C)=N/OC(C)C)cn(CC(O)c2cc(F)ccc2OC)c1=O)NC(=O)N(C)C (stereo partly drawn) [C-54]
pest or weed control at 100 g/100 kg seed [4]: ≥ 75%
inhibition at 25 ppm [2]: ≥ 50%

CCC(=O)N[C@@H](CC)Cn1c(=O)c(/C(C)=N/OC(C)C)cn(CC(O)c2cc(F)ccc2OC)c1=O (stereo partly drawn) [C-56]
pest or weed control at 100 g/100 kg seed [4]: ≥ 75%
inhibition at 25 ppm [2]: ≥ 50%

COc1ccccc1C(O)Cn1cc(/C(C)=N/OC(C)C)c(=O)n(C[C@@H](NC(=O)c2ccccc2)C(C)C)c1=O (stereo partly drawn) [C-85]
pest or weed control at 100 g/100 kg seed [4]: ≥ 75%

CCN(C)C(=O)N[C@H](Cn1c(=O)c(/C(C)=N/OC(C)C)cn(CC(O)c2cc(F)ccc2OC)c1=O)C(C)C (stereo partly drawn) [C-89]
pest or weed control at 100 g/100 kg seed [4]: ≥ 75%
inhibition at 25 ppm [2]: ≥ 50%

COc1ccccc1C(O)Cn1cc(/C(C)=N/OC(C)C)c(=O)n(C[C@@H](NC(=O)CC(C)C)C(C)C)c1=O (stereo partly drawn) [C-97]
pest or weed control at 100 g/100 kg seed [4]: ≥ 75%

COc1ccc(F)cc1C(O)Cn1cc(/C(C)=N/OC(C)C)c(=O)n(C[C@@H](NC(=O)C(C)(C)C)C(C)C)c1=O (stereo partly drawn) [C-112]
pest or weed control at 100 g/100 kg seed [4]: ≥ 75%
inhibition at 25 ppm [2]: ≥ 50%
